From ChEMBL document CHEMBL1132900, “Methaqualone derivatives are potent noncompetitive AMPA receptor antagonists” (Bioorg Med Chem Lett, 2000)

Molecular target: Glutamate receptor ionotropic, AMPA (Rattus norvegicus, UniProt P19490+P19491+P19492+P19493)
Description: Antagonist potency against functional AMPA receptor by kainate-induced Ca+2 in rat cerebellar granule neurons in primary culture

| SMILES | IC50 |
| --- | --- |
| Cc1ccc(C#N)c(/C(O)=C/c2nc3ccc(F)cc3c(=O)n2-c2ccccc2Cl)n1 | 9.3 nM |
| N#Cc1cccnc1/C(O)=C/c1nc2ccc(F)cc2c(=O)n1-c1ccccc1Cl | 14 nM |
| N#Cc1ccccc1/C(O)=C/c1nc2ccc(F)cc2c(=O)n1-c1ccccc1Cl | 130 nM |
| O=c1c2ccccc2nc(/C=C(\O)c2ccccn2)n1-c1ccccc1Cl | 490 nM |
| O=c1c2cc(F)ccc2nc(/C=C(\O)c2ccccc2F)n1-c1ccccc1Cl | > 30000 nM |
| O=c1c2ccccc2nc(/C=C(\O)c2ccncc2)n1-c1ccccc1Cl | 370 nM |
| Cc1cccc(/C(O)=C/c2nc3ccc(F)cc3c(=O)n2-c2ccccc2Cl)n1 | 5500 nM |
| O=c1c2cc(F)ccc2nc(/C=C(\O)c2ccccn2)n1-c1ccccc1Cl | 250 nM |
| CC1=NN=C(c2ccc(N)cc2)c2cc3c(cc2C1)OCO3 [GYKI-52466] | 22000 nM |
| Cc1nc2ccccc2c(=O)n1-c1ccccc1Cl [MECLOQUALONE] | > 10000 nM |
| Cc1ccccc1-n1c(C)nc2ccccc2c1=O [METHAQUALONE] | > 10000 nM |
